Among the data in US9394282B2, “Pyrazole carboxamides as Janus kinase inhibitors” (Merck Sharp & Dohme Corp., priority 2011, dated 2016) are IC50 values, retold here.

One assay has as its target JAK2 (Homo sapiens (Human), UniProt O60674). As to the kind of experiment: Jak biochemical HTRF assay, JAK2. The conditions noted are these: recombinant purified GST-tagged catalytic domain, HTRF format. From the text: (§1) Jak Biochemical HTRF Assay Protocol
(§2) Subsequent reagent additions employed an Agilent Bravo.
On the technique in general: TR-FRET usually uses a lanthanide donor and a delayed reading to cut background.

Another assay concerns the target JAK1 (Homo sapiens (Human), UniProt P23458). As to the kind of experiment: Jak biochemical HTRF assay, JAK1. The conditions noted are these: recombinant purified GST-tagged catalytic domain; HTRF format; [ATP] 31.8 μM.
Description: as §1, §2

Chain of JAK1 (P23458 875-1153): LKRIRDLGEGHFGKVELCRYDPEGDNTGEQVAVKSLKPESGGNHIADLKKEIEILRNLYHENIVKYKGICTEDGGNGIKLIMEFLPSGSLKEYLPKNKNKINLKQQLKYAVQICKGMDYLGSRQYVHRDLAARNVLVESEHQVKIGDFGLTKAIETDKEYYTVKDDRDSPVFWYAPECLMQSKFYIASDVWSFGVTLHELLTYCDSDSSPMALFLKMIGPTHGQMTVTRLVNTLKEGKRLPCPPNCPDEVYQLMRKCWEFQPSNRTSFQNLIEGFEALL
Chain of JAK2 (O60674 849-1124): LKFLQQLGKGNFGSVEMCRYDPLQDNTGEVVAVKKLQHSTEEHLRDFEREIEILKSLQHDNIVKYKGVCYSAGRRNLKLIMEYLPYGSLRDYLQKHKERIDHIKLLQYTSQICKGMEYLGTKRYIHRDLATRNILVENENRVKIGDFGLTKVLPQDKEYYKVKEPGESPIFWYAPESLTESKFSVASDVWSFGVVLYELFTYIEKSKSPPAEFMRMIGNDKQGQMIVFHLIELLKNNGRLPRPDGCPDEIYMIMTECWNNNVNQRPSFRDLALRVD

Broadly, the IC50 is the concentration at which inhibition is half-maximal. With `N#C[C@H]1CCOC[C@@H]1n1cc(C(N)=O)c(Nc2ccc(OC(F)(F)F)cc2)n1` (single isomer, unassigned) [Example 9-20, 1-[(3R,4S or 3S,4R)-4-cyanotetrahydro-2H-pyran-3-yl]-3-{[4-(trifluoromethoxy)phenyl]amino}-1H-pyrazole-4-carboxamide], the IC50 on JAK2 ([ATP] 8.5 μM) came out at 52 nM; at JAK1, 7 nM.

Regarding `CC1(c2ccc(Nc3nn([C@H]4COCC[C@@H]4C#N)cc3C(N)=O)cc2)COC1` (single isomer, unassigned) [Example 9-24, 1-[(3R,4S or 3S,4R)-4-cyanotetrahydro-2H-pyran-3-yl]-3-{[4-(3-methyloxetan-3-yl)phenyl]amino}-1H-pyrazole-4-carboxamide], the concentration for half-maximal inhibition (IC50) is 0.6 nM on JAK2 ([ATP] 8.5 μM) and 0.1 nM on JAK1.

With `CC1(c2ccc(Nc3nn([C@@H]4COCC[C@H]4C#N)cc3C(N)=O)cc2)COC1` (single isomer, unassigned) [Example 9-26, 1-[(3S,4R or 3R,4S)-4-cyanotetrahydro-2H-pyran-3-yl]-3-{[4-(3-methyloxetan-3-yl)phenyl]amino}1H-pyrazole-4-carboxamide], the half-maximal inhibitory concentration (IC50) was found to be 21 nM at JAK2 ([ATP] 8.5 μM) and 6 nM at JAK1.

Regarding `N#C[C@H]1CCOC[C@@H]1n1cc(C(N)=O)c(Nc2ccc(F)nc2)n1` (single isomer, unassigned) [Example 9-29, 1-[(3R,4S or 3S,4R)-4-cyanotetrahydro-2H-pyran-3-yl]-3-[(6-fluoropyridin-3-yl)amino]-1H-pyrazole-4-carboxamide], the IC50 amounted to 5 nM at JAK2 ([ATP] 8.5 μM) and 0.8 nM at JAK1.

Turning to `N#C[C@H]1CCOC[C@@H]1n1cc(C(N)=O)c(Nc2cncc(F)c2)n1` (single isomer, unassigned) [Example 9-30, 1-[(3R,4S or 3S,4R)-4-cyanotetrahydro-2H-pyran-3-yl]-3-[(5-fluoropyridin-3-yl)amino]-1H-pyrazole-4-carboxamide], the IC50 on JAK2 ([ATP] 8.5 μM) came to 306 nM; at JAK1 it was 83 nM.

In the case of `N#C[C@@H]1CCOC[C@H]1n1cc(C(N)=O)c(Nc2cncc(F)c2)n1` (single isomer, unassigned) [Example 9-31, 1-[(3S,4R or 3R,4S)-4-cyanotetrahydro-2H-pyran-3-yl]-3-[(5-fluoropyridin-3-yl)amino]-1H-pyrazole-4-carboxamide], the half-maximal inhibitory concentration (IC50) on JAK2 ([ATP] 8.5 μM) came to 7 nM; on JAK1, 0.9 nM.

With `N#Cc1ccc(Nc2nn([C@H]3COCC[C@@H]3C#N)cc2C(N)=O)cc1` (single isomer, unassigned) [Example 9-35, 3-[(4-cyanophenyl)amino]-1-[(3R, 4S or 3S,4R)-4-cyanotetrahydro-2H-pyran-3-yl]-1H-pyrazole-4-carboxamide], the IC50 was 0.7 nM on JAK2 ([ATP] […]) and 0.07 nM on JAK1.

For `N#C[C@H]1CCOC[C@@H]1n1cc(C(N)=O)c(Nc2ccc(OCC(F)(F)F)nc2)n1` (single isomer, unassigned) [Example 9-36, 1-[(3R,4S or 3S,4R)-4-cyanotetrahydro-2H-pyran-3-yl]-3-{[6-(2,2,2-trifluoroethoxy)pyridin-3-yl]amino}-1H-pyrazole-4-carboxamide], the IC50 on JAK2 ([ATP] 8.5 μM) was 3 nM; on JAK1 it was 0.6 nM.

Take `C[C@@]1(C#N)CS(=O)(=O)C[C@@H]1n1cc(C(N)=O)c(Nc2ccc(F)cc2)n1` (single isomer, unassigned) [Example 14-1, 1-((3R,4R or 3S,4S)-4-Cyano-4-methyl-1,1-dioxidotetrahydrothiophen-3-yl)-3-((4-fluorophenyl)amino)-1H-pyrazole-4-carboxamide]: the IC50 at JAK2 ([ATP] […]) came to 18 nM; at JAK1, 2 nM.

Take `C[C@@]1(C#N)CS(=O)(=O)C[C@@H]1n1cc(C(N)=O)c(Nc2ccc(F)cc2)n1` (single isomer, unassigned) [Example 14-2, 1-((3R,4R or 3S,4S)-4-Cyano-4-methyl-1,1-dioxidotetrahydrothiophen-3-yl)-3-((4-fluorophenyl)amino)-1H-pyrazole-4-carboxamide]: the IC50 on JAK2 ([ATP] […]) is 292 nM; at JAK1 it was 84 nM.

With `N#C[C@@H]1CN(CC2CCC2)CC[C@H]1n1cc(C(N)=O)c(Nc2ccc(F)cc2)n1` [Example 6-40, 1-[(3R,4R)-3-cyano-1-(cyclobutylmethyl)piperidin-4-yl]-3-[(4-fluorophenyl)amino]-1H-pyrazole-4-carboxamide], the IC50 on JAK2 ([ATP] […]) is 66 nM; on JAK1, 5 nM.

As to `Cc1ncoc1CN1CC[C@@H](C#N)[C@H](n2cc(C(N)=O)c(Nc3ccc(F)cc3)n2)C1` [Example 7-2, 1-{(3S,4R, 3R,4S)-4-cyano-1-[(4-methyl-1,3-oxazol-5-yl)methyl]piperidin-3-yl}-3-[(4-fluorophenyl)amino]-1H-pyrazole-4-carboxamide], the IC50 at JAK2 ([ATP] […]) was 8 nM; at JAK1, 0.6 nM.

For `C[C@]1(C#N)CS(=O)(=O)CC1n1cc(C(N)=O)c(Nc2ccc(F)cc2)n1` (stereo partly drawn) [Example 13-5, 1-((3S,4R or 3R4S)-4-cyano-4-methyl-1,1-dioxidotetrahydrothiophen-3-yl)-3-((4-fluorophenyl)amino)-1H-pyrazole-4-carboxamide], the IC50 was 6 nM on JAK2 ([ATP] […]) and 0.5 nM at JAK1.
